# Target: T1, human histamine H4 receptor (Homo sapiens, UniProt Q9H3N8)
# T1 construct: expressed in transfected cells; host or cells: SK-N-MC cells or COS7 cells, transient transfection with pH4R; cell membranes
# Experiment: Binding Assay on Recombinant Human Histamine H4 Receptor
# Conditions: competition binding with 3H-histamine (5 nM; KD 5 nM), membranes of SK-N-MC or COS7 cells expressing human H4 receptor; average of results; > = highest value tested
# Procedure, shortened: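 Membranes from SK-N-MC or COS7 cells transiently transfected with H4R incubated 45 min at room temperature with ³H-histamine; nonspecific binding defined with 10,000 nM histamine. Filtration and scintillation counting. Ki from competition with 5 nM ³H-histamine, using a KD of 5 nM.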
# T1 sequence (Q9H3N8 whole entry): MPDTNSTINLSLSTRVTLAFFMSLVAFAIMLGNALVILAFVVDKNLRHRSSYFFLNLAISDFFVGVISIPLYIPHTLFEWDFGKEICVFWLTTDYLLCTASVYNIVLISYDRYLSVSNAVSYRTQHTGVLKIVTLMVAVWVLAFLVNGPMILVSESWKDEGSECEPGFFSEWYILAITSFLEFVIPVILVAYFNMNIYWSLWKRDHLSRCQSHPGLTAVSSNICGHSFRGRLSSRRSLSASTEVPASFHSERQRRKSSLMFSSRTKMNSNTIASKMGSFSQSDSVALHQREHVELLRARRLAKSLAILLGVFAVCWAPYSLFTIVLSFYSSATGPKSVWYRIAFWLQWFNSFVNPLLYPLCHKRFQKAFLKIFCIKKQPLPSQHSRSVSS
row,SMILES,Ki
1,"Cc1cccc2[nH]c(-c3ccc4c(c3)CCN4CCCC3CCN(C)CC3)nc12 [Example 98, 4-Methyl-2-{1-[3-(1-methyl-piperidin-4-yl)-propyl]-2,3-dihydro-1H-indol-5-yl}-1H-benzoimidazole]",157 nM
2,"CN1CCC(CCCCn2cc(Cl)c3c(-c4nc5cccc(C(=O)c6ccccc6)c5[nH]4)cccc32)CC1 [Example 72, (2-{3-Chloro-1-[4-(1-methyl-piperidin-4-yl)-butyl]-1H-indol-4-yl}-3H-benzoimidazol-4-yl)-phenyl-methanone]",545 nM
3,"COC(=O)c1ccc2nc(-c3cccc4c3c(Cl)cn4CCCCC3CCN(C)CC3)[nH]c2c1 [Example 137, 2-{3-Chloro-1-[4-(1-methyl-piperidin-4-yl)-butyl]-1H-indol-4-yl}-3H-benzoimidazole-5-carboxylic acid methyl ester]",2880 nM
4,"Cc1c(F)ccc2[nH]c(-c3ccc4c(c3)c(Cl)cn4CCCC3CCNCC3)nc12 [Example 87, 2-[3-Chloro-1-(3-piperidin-4-yl-propyl)-1H-indol-5-yl]-5-fluoro-4-methyl-1H-benzoimidazole]",1830 nM
5,"Cc1ccc2[nH]c(-c3ccc4ncn(CCCCC5CCN(C)CC5)c4c3)nc2c1C [Example 125, 4,5-Dimethyl-3′-[4-(1-methyl-piperidin-4-yl)-butyl]-1H,3′H-[2,5′]bibenzoimidazolyl]",2670 nM
6,"Cc1c(-c2nc3cc(Cl)ccc3[nH]2)ccc2c1CCN2CCCC1CCN(C)CC1 [Example 58, 5-Chloro-2-{4-methyl-1-[3-(1-methyl-piperidin-4-yl)-propyl]-2,3-dihydro-1H-indol-5-yl}-1H-benzoimidazole]",19 nM
7,"CN1CCC(CCCn2ccc3cc(-c4nc5c(F)cc(F)cc5[nH]4)c(Cl)cc32)CC1 [Example 48, 2-{6-Chloro-1-[3-(1-methyl-piperidin-4-yl)-propyl]-1H-indol-5-yl}-4,6-difluoro-1H-benzoimidazole]",1030 nM
8,"Cc1ccc2[nH]c(-c3cc4ccn(CCCC5CCNCC5)c4cc3Cl)nc2c1C [Example 100, 2-[6-Chloro-1-(3-piieridin-4-yl-propyl)-1H-indol-5-yl]-4,5-dimethyl-1H-benzoimidazole]",3330 nM
9,"Cc1c(Cl)ccc2[nH]c(-c3ccc4c(ncn4CCCC4CCN(C)CC4)c3C)nc12 [Example 54, 5-Chloro-4,4′-dimethyl-1′-[3-(1-methyl-piperidin-4-yl)-propyl]-1H ,1′H-[2,5′]bibenzoimidazolyl]",1 nM
10,"Cc1ccc2[nH]c(-c3cnc4c(ccn4CCCC4CCN(C)CC4)c3)nc2c1C [Example 47, 4,5-Dimethyl-2-{1-[3-(1-methyl-piperidin-4-yl)-propyl]-1H-pyrrolo[2,3-b]pyridin-5-yl}-1H-benzoimidazole]",56 nM
11,"Fc1ccc2[nH]c(-c3cccc4c3ccn4CCCCC3CCNCC3)nc2c1 [Example 115, 5-Fluoro-2-[1-(4-piperidin-4-yl-butyl)-1H-indol-4-yl]-1H-benzoimidazole]",> 10000 nM
12,"COC(=O)c1ccc2nc(-c3cccc4c3c(Cl)cn4CCCCC3CCNCC3)[nH]c2c1 [Example 135, 2-[3-Chloro-1-(4-piperidin-4-yl-butyl)-1H-indol-4-yl]-3H-benzoimidazole-5-carboxylic acid methyl ester]",> 10000 nM
13,"Cc1c(F)ccc2[nH]c(-c3cccc4c3ccn4CCCCC3CCNCC3)nc12 [Example 35, 5-Fluoro-4-methyl-2-[1-(4-piperidin-4-yl-butyl)-1H-indol-4-yl]-1H-benzoimidazole]",683 nM
14,"Cc1cccc2[nH]c(-c3ccc4ccn(CCCCC5CCNCC5)c4c3)nc12 [Example 107, 4-Methyl-2-[1-(4-piperidin-4-yl-butyl)-1H-indol-6-yl]-1H-benzoimidazole]",> 10000 nM
15,Cc1ccc2[nH]c(-c3ccc4c(c3)ncn4CCCCC3CCNCC3)nc2c1C [Example 118],3000 nM
16,"Cc1c(F)ccc2[nH]c(-c3ccc4c(ccn4CCCC4CCN(C)CC4)c3Cl)nc12 [Example 8, 2-{4-Chloro-1-[3-(1-methyl-piperidin-4-yl)-propyl]-1H-indol-5-yl}-5-fluoro-4-methyl-1H-benzoimidazole]",29 nM
17,"Fc1cc(F)c2nc(-c3cccc4c3ccn4CCCCC3CCNCC3)[nH]c2c1 [Example 116, 4,6-Difluoro-2-[1-(4-piperidin-4-yl-butyl)-1H-indol-4-yl]-1H-benzoimidazole]",3330 nM
18,"Cc1nc(-c2ccc3c(ncn3CCCC3CCN(C)CC3)c2C)[nH]c1-c1ccc(C(F)(F)F)cc1 [Example 82, 4-Methyl-1-[3-(1-methyl-piperidin-4-yl)-propyl]-5-[4-methyl-5-(4-trifluoromethyl-phenyl)-1H-imidazol-2-yl]-1H-benzoimidazole]",0.3 nM

row,SMILES,Ki
1,"Cc1ccc2[nH]c(-c3ccc4ncn(CCCCC5CCNCC5)c4c3)nc2c1C [Example 123, 4,5-Dimethyl-3′-(4-piperidin-4-yl-butyl)-1H,3′H-[2,5′]bibenzoimidazolyl]",3330 nM
2,"Cc1cc(C)c2nc(-c3ccc4c(c3Cl)CCN4CCCC3CCN(C)CC3)[nH]c2c1 [Example 3, 2-{4-Chloro-1-[3-(1-methyl-piperidin-4-yl)-propyl]-2,3-dihydro-1H-indol-5-yl}-4,6-dimethyl-1H-benzoimidazole]",33 nM
3,"Cc1ccc2[nH]c(-c3ccc4c(ccn4CCCN4CCNCC4)c3)nc2c1C [Example 62, 4,5-Dimethyl-2-[1-(3-piperazin-1-yl-propyl)-1H-indol-5-yl]-1H-benzoimidazole]",1310 nM
4,"Cc1c(F)ccc2[nH]c(-c3ccc4c(ccn4CCCN4CCN(C)CC4)c3)nc12 [Example 13, 5-Fluoro-4-methyl-2-{1-[3-(4-methyl-piperazin-1-yl)-propyl]-1H-indol-5-yl}-1H-benzoimidazole]",168 nM
5,"Cc1c(F)ccc2[nH]c(-c3ccc4ccn(CCCCC5CCN(C)CC5)c4c3)nc12 [Example 26, 5-Fluoro-4-methyl-2-{1-[4-(1-methyl-piperidin-4-yl)-butyl]-1H-indol-6-yl}-1H-benzoimidazole]",880 nM
6,"Cc1c(F)ccc2[nH]c(-c3ccc4c(c3)c(Cl)cn4CCCC3CCN(C)CC3)nc12 [Example 88, 2-{3-Chloro-1-[3-(1-methyl-piperidin-4-yl)-propyl]-1H-indol-5-yl}-5-fluoro-4-methyl-1H-benzoimidazole]",> 10000 nM
7,"Cc1c(F)ccc2[nH]c(-c3cnc4c(ccn4CCCC4CCNCC4)c3)nc12 [Example 91, 5-Fluoro-4-methyl-2-[1-(3-piperidin-4-yl-propyl)-1H-pyrrolo[2,3-b]pyridin-5-yl]-1H-benzoimidazole]",762 nM
8,"Cc1c(F)ccc2[nH]c(-c3ccc4c(c3Cl)CCN4CCCC3CCN(C)CC3)nc12 [Example 4, 2-{4-Chloro-1-[3-(1-methyl-piperidin-4-yl)-propyl]-2,3-dihydro-1H-indol-5-yl}-5-fluoro-4-methyl-1H-benzoimidazole]",34 nM
9,"Cc1cc(C)c2nc(-c3ccc4c(c3C)CCN4CCCC3CCN(C)CC3)[nH]c2c1 [Example 57, 4,6-Dimethyl-2-{4-methyl-1-[3-(1-methyl-piperidin-4-yl)-propyl]-2,3-dihydro-1H-indol-5-yl}-1H-benzoimidazole]",5 nM
10,"Cc1cc(Cl)cc2[nH]c(-c3ccc4c(c3)c(Cl)cn4CCCC3CCN(C)CC3)nc12 [Example 29, 6-Chloro-2-{3-chloro-1-[3-(1-methyl-piperidin-4-yl)-propyl]-1H-indol-5-yl}-4-methyl-1H-benzoimidazole]",1670 nM
11,"Cc1cccc2[nH]c(-c3ccc4c(c3)CCN4CCCC3CCNCC3)nc12 [Example 95, 4-Methyl-2-[1-(3-piperidin-4-yl-propyl)-2,3-dihydro-1H-indol-5-yl]-1H-benzoimidazole]",390 nM
12,"Cc1nc2c(ccc3[nH]c(-c4ccc5c(c4C)CCN5CCCC4CCN(C)CC4)nc32)s1 [Example 60, 2-Methyl-7-{4-methyl-1-[3-(1-methyl-piperidin-4-yl)-propyl]-2,3-dihydro-1H-indol-5-yl}-6H-imidazo[4′,5′:3,4]benzo[2,1-d]thiazole]",91 nM
13,"CN1CCC(CCCN2CCc3cc(-c4nc5cc(Cl)ccc5[nH]4)ccc32)CC1 [Example 97, 5-Chloro-2-{1-[3-(1-methyl-piperidin-4-yl)-propyl]-2,3-dihydro-1H-indol-5-yl}-1H-benzoimidazole]",43 nM
14,"Fc1cc2nc(-c3cccc4c3c(Cl)cn4CCCCC3CCNCC3)[nH]c2cc1F [Example 131, 2-[3-Chloro-1-(4-piperidin-4-yl-butyl)-1H-indol-4-yl]-5,6-difluoro-1H-benzoimidazole]",3330 nM
15,"Clc1ccc2[nH]c(-c3ccc4c(ccn4CCCN4CCNCC4)c3)nc2c1 [Example 64, 5-Chloro-2-[1-(3-piperazin-1-yl-propyl)-1H-indol-5-yl]-1H-benzoimidazole]",1520 nM
16,"Cc1[nH]c(-c2ccc3c(ccn3CCCN3CCN(C)CC3)c2)nc1-c1cccc(C(F)(F)F)c1 [Example 79, 1-[3-(4-Methyl-piperazin-1-yl)-propyl]-5-[5-methyl-4-(3-trifluoromethyl-phenyl)-1H-imidazol-2-yl]-1H-indole]",228 nM
17,"CN1CCC(CCCCn2cnc3cc(-c4nc5cc(F)ccc5[nH]4)ccc32)CC1 [Example 120, 5-Fluoro-1′-[4-(1-methyl-piperidin-4-yl)-butyl]-1H,1′H-[2,5′]bibenzoimidazolyl]",3330 nM

# From US8084466B2, “Bicyclic heteroaryl-substituted imidazoles as modulators of the histamine H4 receptor” (Janssen Pharmaceutica NV, priority 2007, dated 2011)
